One block for each compound: values may come before it.
Legend:
[1] = Kinetics study of TCO-Tz click reaction by UV spectroscopy (540 nm); conditions: MeCN, 20° C.
Method: FIG. 1: The kinetics of TCO E-02a and 3,6-di(pyridin-2-yl)-1,2,4,5-tetrazine with a concentration of 10 and 50 μM at 20° C. in MeCN.
The reaction rate in a TCO-Tz click reaction of E-02a was measured under similar conditions as described in Versteegen et al., Angewandte Chemie International Edition 2013, 52 (52), 14112-14116. The second order reaction constant of the reaction between 3,6-di(pyridin-2-yl)-1,2,4,5-tetrazine and E-02a was determined under second order conditions in MeCN at 20° C. by UV spectroscopy. A cuvette was filled with MeCN (2.8 mL) and equilibrated at 20° C. A stock solution of tetrazine in DMSO (100 μl) was added to the cuvette. The absorption of the tetrazine moiety was measured at 540 nm. Next, the cuvette was removed from the apparatus to add a stock solution of E-02a in DMSO (100 μl) and briefly mixed the solution by shaking the cuvette before placing it back into the apparatus. The absorption at 540 nm was measured for 15 minutes. From this absorption at 540 nm, the concentration of tetrazine was calculated using a molar absorption coefficient of ε=430 M^−1 cm^−1. […] TCO reactions known from the prior art (Versteegen et al., Angewandte Chemie International Edition 2013, 52 (52), 14112-14116, DOI: 10.1002/anie.201305969) were assessed at 83.3 μM and afforded a lower rate of 62, 5 M^−1s^−1 under similar conditions.

[2] = 19F-NMR kinetic study of click-to-release reaction (release of PFP)
Method: FIG. 2: ^19F-NMR kinetic study of the click-to-release reaction of 20 mM TCO (E-03a) with 3,6-di(pyridin-2-yl)-1,2,4,5-tetrazine at 20° C.
The ^19F NMR (377 MHz) spectrum of an NMR-tube filled with a solution of E-03a (5 mg, 1.0 equiv, 11.9 μmol) in CDCl3 (500 μl) was measured. Next, a solution of 3,6-di(pyridin-2-yl)-1,2,4,5-tetrazine (3.1 mg, 1.1 equiv, 13 μmol) in CDCl3 (100 μl) was added to the NMR tube. The tube was vigorously shaken and placed back in the NMR apparatus. The sample was measured within two minutes after the addition of the second compound. Every 48 seconds a measurement (number of scans: 4, relaxation delay: 5.8 see, range: −147.0 to −178.5 ppm) was taken of the sample. After 160 minutes the measurements were stopped.
Only after elevating the temperature to +10° C., the pentafluorophenyl carbonate was released from the conjugated product. Release of payload from compounds of the invention was not only found to be fast, but also complete. […] The fastest payload release observed with their compounds afforded less than 20% release over 250 minutes.

[3] = Stability test of TCO in deuterated PBS buffer at 37° C. followed by 1H-NMR; type: physicochemical; conditions: covered from light
Method: An NMR tube was charged with a solution of E-04a (41 mg) in deuterated PBS buffer (500 μl). The NMR sample was placed in a water bath at 37° C. while being covered from light by aluminum foil.

[4] = Kinetics study of fluorophore (AMC) release, fluorescence, with DM tetrazine; conditions: PBS pH=7.2, 37° C.
Method: (§1) A procedure adapted from prior art was followed (Fan, X. et al., Optimized tetrazine derivatives for rapid bioorthogonal decaging in living cells. Angew. Chem. 2016, 128 (45), 14252-14256.)
(§2) Stock solutions (all in DMSO) • Stock A (R): E-022a (10 mmolar) • Stock A (NR): E-022b (10 mmolar) • Stock B (DM): 3,6-Dimethyl-1,2,4,5-tetrazine (DM) (20 mmolar) • Stock B (BP): 3,6-Di-2-pyridyl-1,2,4,5-tetrazine (BP) (20 mmolar) • Stock PC: 7-Amino-4-methylcoumarin (10 mmolar) 2.5 μL of the tetrazine stock (DM or BP) was mixed with 395.5 μL of PBS (pH=7.2). 2 μL of the TCO stock (A (R) or A (NR)) was added to this. The reaction mixtures were incubated at 37° C. under mixing (300 rpm). Subsequently, the fluorescence (F1) was measured (ex: 380 nm, em. 450 nm) at certain time points after the addition of the TCO by aliquoting 30 μL in a 384 wells plate (Greiner, black non-binding flat bottom) and directly measuring with a Tecan Spark plate-reader. As control experiment the maximum amount of released AMC was measured (F2, Stock PC without tetrazine or TCO). […] The release efficiency (%) was calculated: F1/F2×100%. All experiments were executed in triplo and the data was processed using GraphPad Prism (version 9.0). The Kelim. values were determined by first-order exponential one phase decay approximations. […] For BP this value was 2.96*10^−6S^−1.

[5] = Kinetics study of fluorophore (AMC) release, fluorescence, with BP tetrazine; conditions: PBS pH=7.2, 37° C., first-order one phase fit
Method: as §1, §2

[6] = Kinetics study of doxorubicin release by HPLC/LCMS; conditions: PBS pH=7.2, 37° C., directly after addition of tetrazine
Method: Stock solutions (all in DMSO) • Stock E-025a: E-025a (10 mmolar) • Stock Ttz: 3,6-dimethyl-1,2,4,5-tetrazine (XA, 20 mmolar) Procedure: 100 μL of the TCO-Dox stock was added to 900 μL of PBS (pH=7.2) and HPLC analysis was done which only indicated starting material (t=13.08 min). Hereafter the reaction was incubated at 37° C. under mixing (300 rpm) and 500 μL of the Ttz stock was added. At certain time points after the addition of the Ttz the reaction mixture was analyzed by aliquoting 200 μL and analysis by HPLC/LCMS.

Structure (SMILES): CCOC(=O)C1C2CC=CC(O)CCC21 (single isomer, unassigned) [E-02a]
second order rate constant k2 (reaction rate) of click reaction ([1]; concentration 10 μM): 249 M⁻¹ s⁻¹
second order rate constant k2 (reaction rate) of click reaction ([1]; concentration 50 μM): 437 M⁻¹ s⁻¹

Structure (SMILES): CCOC(=O)[C@H]1[C@@H]2CCC(OC(=O)Oc3c(F)c(F)c(F)c(F)c3F)C=CC[C@@H]21 (stereo in doubt) [E-03b, ethyl (1S,5R,8R,9S, E)-5-(((perfluorophenoxy)carbonyl)oxy)bicyclo[6.1.0]non-3-ene-9-carboxylate]
release rate compared with E-03a ([2]; E-03b used instead of E-03a): several factors slower

Structure (SMILES): CCOC(=O)[C@H]1[C@@H]2CC[C@@H](OC(=O)Oc3c(F)c(F)c(F)c(F)c3F)/C=C/C[C@@H]21 [E-03a, ethyl (1S,5R,8R,9S, E)-5-(((perfluorophenoxy)carbonyl)oxy)bicyclo[6.1.0]non-3-ene-9-carboxylate]
release of PFP (pentafluorophenolate) after 20 minutes ([2]; 20 mM TCO, CDCl3, 20° C., 1.1 equiv tetrazine): Almost complete release
release upon tautomerization from the click product ([2]; lower temperatures, 40 mM, dipyridyl tetrazine): instantaneous
formation of pentafluorophenol from click conjugate ([2]; −20° C., 40 mM, dipyridyl tetrazine): did not show any formation of pentafluorophenol

changes in the 1H-NMR spectrum after 7 days [3]: no changes
Structure (SMILES): O=C(O)[C@H]1[C@@H]2CC[C@@H](O)/C=C/C[C@@H]21 [E-04a, (1S,5R,8R,9S, E)-5-hydroxybicyclo[6.1.0]non-3-ene-9-carboxylic acid]

Structure (SMILES): CCOC(=O)[C@H]1[C@@H]2CC[C@@H](OC(=O)Nc3ccc4c(C)cc(=O)oc4c3)/C=C\C[C@@H]21 [E-022a, COOEt-Exo-Axial-TCO-AMC]
Kelim. value of AMC release ([4]; DM tetrazine, first-order one phase fit): 8.15*10^−5 S^−1
Kelim. value of AMC release [5]: 2.96*10^−6 S^−1

Structure (SMILES): CCOC(=O)[C@H]1[C@@H]2CCC(OC(=O)Nc3ccc4c(C)cc(=O)oc4c3)/C=C\C[C@@H]21 (stereo partly drawn) [E-022b, COOEt-Exo-Equatorial-TCO-AMC]
AMC release compared with E-022a ([4]; tetrazine (DM or BP) not specified): slower

Structure (SMILES): CCOC(=O)[C@H]1[C@@H]2CC[C@@H](OC(=O)N[C@H]3C[C@H](O[C@H]4C[C@](O)(C(=O)CO)Cc5c(O)c6c(c(O)c54)C(=O)c4c(OC)cccc4C6=O)O[C@@H](C)[C@@H]3O)/C=C\C[C@@H]21 [E-025a, COOEt-Exo-Axial-TCO-PNP]
release of doxorubicin after addition of the tetrazine [6]: almost instant release

From patent US20240294457A1, “Strained bi-functionalized trans-cyclooctenes” (Stichting Radboud Universiteit, priority 2021, published 2024)
